Reference: patent US5648359A, “Tumor necrosis factor production inhibitors” (Sumitomo Pharmaceuticals Company, Limited, priority 1993, dated 1997)
Structures can show the parent of a compound that is named as a salt.

System: TNF production or secretion in mouse peritoneal macrophages
Assay: Inhibitory effect on TNF production or secretion in mouse peritoneal macrophages (30 μM)
Format: cell-based, mouse (BALB/c)
Details: Mus musculus; 30 μM compound; LPS 10 μg/ml, 18 hours; TNF by L929 bioassay
Method: Inhibitory effect on TNF production or secretion in mouse peritoneal macrophages (In case drug concentration is 30 μM)
BALB/c mice (5 weeks old, female, Charles River Japan) were intraperitoneally injected with 1 ml of 3% thioglycollate broth. After 4 days, the mice were sacrificed. Peritoneal exudated cells (PECs) were collected from the peritoneal cavity by washing with minimum essential medium (hereinafter abbreviated as MEM, manufactured by Handai Biseibutubyo Kenkyukai, Osaka, Japan) containing 5 U/ml heparin and 1% fetal bovine serum (FBS, manufactured by GIBCO Laboratories Inc.). PECs were washed three times with MEM, suspended with MEM containing 10% FBS. After the viable cells were counted by exclusion of trypan blue dye, the suspension was adjusted at the final concentration of 2×10^6 cells/ml with MEM containing 10% FBS and seeded into a 96-well microplate (Costar, Cambridge, Mass., USA) at 2×10^5 cells/100 μl/well. The PECs were incubated for an hour at 37° C. in a humidified 5% CO2 incubator, and were washed twice with MEM warmed at 37° C. to remove non-adherent cells. Residual adherent cells were used as peritoneal macrophages. After the washing above, 50 μl each/well of MEM containing 10% FBS was added to each well and provided for use in the following experiment.
The powdery compound of the present invention was dissolved in dimethylsulfoxide in a concentration of 30 mM. The solution was then diluted with MEM containing 10% FBS in the final concentration of 30 μM. In the peritoneal macrophages obtained above, 50 μl each of the dilution was added to each well to make the total volume 100 μl. Thereafter 100 μl each of lipopolysaccharide (hereinafter abbreviated as LPS, E. coli 0111B4, manufactured by DIFCO, USA) was added to each well in the final concentration of 10 μg/ml. After the cells were incubated at 37° C. for 18 hours in a humidified 5% CO2 incubator, 25 μl of the supernatant in each well was collected.
The TNF activity in the supernatant collected was determined by bioassay using TNF-sensitive mouse fibroblast cell line L929 cells. That is, 100 μl each of MEM containing 10% FBS was added to each well of a 96-well microplate; using the resulting mixture, 25 μl of the collected supernatant was diluted to 5-fold dilution to final concentrations (concentrations after the following addition of L929 cell suspension) of 10%, 2%, 0.4% and 0.08%.
L929 cells were then suspended (4×10^5 cells/ml) in MEM containing 10% FBS and 1 μg/ml actinomycin D (Sigma Co.) and 100 μl each of the suspension was added to each well of the above microplate at 4×10^4 cells/well and cultured at 37° C. in a humidified 50% CO2. The viable cells were counted by partial modification of the MTT method reported in Monosann et al., T., J. Immunol. Method, 65, 55-63, 1983. The modified MTT method comprises the following steps. One mg/ml of 3-(4,5-dimethylthiazol-2-yl)-2,5-diphenyltetrazolium bromide (hereinafter abbreviated as MTT, manufactured by Sigma Co.) was dissolved in MEM, and 50 μl each of the solution was added to each well of the microplate above. After incubating the microplate for further 6 hours, the supernatant was discarded and 100 μl of 0.004N HCl-isopropyl alcohol and then 10 μl of 0.01% sodium laurylsulfate aqueous solution was added to each well. After shaking the 96-well microplate for a few minutes, the absorbance in each well was measured with a microplate reader (Corona Co.) at an absorption wavelength of 550 nm. The absorbance correlated to the count of the viable L929 cells and represented the TNF activity in the supernatant. The TNF activity was determined in terms of unit (U)/ml from the calibration curve of absorbance for the TNF activity obtained using mouse recombinant TNF α (TNF-M, manufactured by Genzyme Co.) as a standard. The activity of inhibiting TNF production of each compound, was determined by the following equation.
Inhibition of TNF production or secretion (%)=(1-TNF activity in the […]

Work on `CC(=O)N1C2Cc3cc4c(cc3C1Cc1cc3c(cc12)OCO3)OCO4` [Example 1, 15-acetyl-5,6,12,13-tetrahydrocycloocta[1,2-f:5,6-f']bis[1,3]benzodioxol-5,12-imine] yielded an inhibition at 30 µM of 95%.

`CCN1C2Cc3cc4c(cc3C1Cc1cc3c(cc12)OCO3)OCO4` [Example 2, 15-ethyl-5,6,12,13-tetrahydrocycloocta[1,2-f:5,6-f']bis[1,3]benzodioxol-5,12-imine hydrochloride] showed an inhibition at 30 µM of 72%.

`c1coc(CN2C3Cc4cc5c(cc4C2Cc2cc4c(cc23)OCO4)OCO5)c1` [Example 3, 15-furfuryl-5,6,12,13-tetrahydrocycloocta[1,2-f:5,6-f']bis[1,3]benzodioxol-5,12-imine hydrochloride] gave an inhibition at 30 µM of -99%.

Work on `Fc1ccc(CCCN2C3Cc4cc5c(cc4C2Cc2cc4c(cc23)OCO4)OCO5)cc1` [Example 4, 15-[3-(4-fluorophenyl)propyl]-5,6,12,13-tetrahydrocycloocta[1,2-f:5,6-f']bis[1,3]benzodioxol-5,12-imine hydrochloride] yielded an inhibition at 30 µM of 18%.

In the case of `CC(=O)N1C2Cc3cc4c(cc3C1Cc1cc3c(cc12)OCCO3)OCCO4` [Example 5, 17-acetyl-6,7,14,15-tetrahydrocycloocta[1,2-g:5,6-g']bis[1,4]benzodioxan-6,14-imine], the inhibition at 30 µM is reported as 64%.

For `c1c2c(cc3c1OCO3)C1Cc3cc4c(cc3C(C2)N1)OCO4` [Example 13, 5,6,12,13-tetrahydrocycloocta-[1,2-f:5,6-f']bis[1,3]benzodioxol-5,12-imine], the inhibition at 30 µM was 78%.

Molecule `c1c2c(cc3c1OCCO3)C1Cc3cc4c(cc3C(C2)N1)OCCO4` [Example 14] has an inhibition at 30 µM of 63%.

`CCC(=O)N1C2Cc3cc4c(cc3C1Cc1cc3c(cc12)OCO3)OCO4` [Example 17, 5,6,12,13-tetrahydro-15-propionylcycloocta-[1,2-f:5,6-f']bis[1,3]benzodioxol-5,12-imine] showed an inhibition at 30 µM of 94%.

`CCCC(=O)N1C2Cc3cc4c(cc3C1Cc1cc3c(cc12)OCO3)OCO4` [Example 18] gave an inhibition at 30 µM of 86%.

`COCC(=O)N1C2Cc3cc4c(cc3C1Cc1cc3c(cc12)OCO3)OCO4` [Example 20] was tested, and the inhibition at 30 µM was 92%.

In the case of `CCOC(=O)C(=O)N1C2Cc3cc4c(cc3C1Cc1cc3c(cc12)OCO3)OCO4` [Example 21, 15-ethoxalyl-5,6,12,13-tetrahydrocycloocta[1,2-f:5,6-f']bis[1,3]benzodioxol-5,12-imine], the inhibition at 30 µM is reported as 69%.

In the case of `CCOC(=O)CC(=O)N1C2Cc3cc4c(cc3C1Cc1cc3c(cc12)OCO3)OCO4` [Example 22, 15-(ethoxycarbonylacetyl)-5,6,12,13-tetrahydrocycloocta[1,2-f:5,6-g']bis[1,3]benzodioxol-5,12-imine], the inhibition at 30 µM is reported as 77%.

With `O=C(c1ccccc1)N1C2Cc3cc4c(cc3C1Cc1cc3c(cc12)OCO3)OCO4` [Example 23] the inhibition at 30 µM was 39%.

Molecule `CCOC(=O)N1C2Cc3cc4c(cc3C1Cc1cc3c(cc12)OCO3)OCO4` [Example 24] has an inhibition at 30 µM of 68%.

`CCCCCOC(=O)N1C2Cc3cc4c(cc3C1Cc1cc3c(cc12)OCO3)OCO4` [Example 25] showed an inhibition at 30 µM of 46%.

`O=C(Oc1ccccc1)N1C2Cc3cc4c(cc3C1Cc1cc3c(cc12)OCO3)OCO4` [Example 26] showed an inhibition at 30 µM of 27%.

Work on `CN1C2Cc3cc4c(cc3C1Cc1cc3c(cc12)OCO3)OCO4` [Example 27] yielded an inhibition at 30 µM of 86%.

Work on `CC(C)CN1C2Cc3cc4c(cc3C1Cc1cc3c(cc12)OCO3)OCO4` [Example 31] yielded an inhibition at 30 µM of 36%.

With `C=CCN1C2Cc3cc4c(cc3C1Cc1cc3c(cc12)OCO3)OCO4` [Example 32] the inhibition at 30 µM was 12%.

`C=CCCCN1C2Cc3cc4c(cc3C1Cc1cc3c(cc12)OCO3)OCO4` [Example 33] showed an inhibition at 30 µM of -5%.

`c1c2c(cc3c1OCO3)C1Cc3cc4c(cc3C(C2)N1CCN1CCCCC1)OCO4` [Example 34] showed an inhibition at 30 µM of 56%.

`OCCN1C2Cc3cc4c(cc3C1Cc1cc3c(cc12)OCO3)OCO4` [Example 35] showed an inhibition at 30 µM of 65%.

For `COC(=O)CCN1C2Cc3cc4c(cc3C1Cc1cc3c(cc12)OCO3)OCO4` [Example 36], the inhibition at 30 µM was -24%.

Molecule `CCOC(=O)CN1C2Cc3cc4c(cc3C1Cc1cc3c(cc12)OCO3)OCO4` [Example 37] has an inhibition at 30 µM of 19%.

In the case of `CCOC(=O)CCN1C2Cc3cc4c(cc3C1Cc1cc3c(cc12)OCO3)OCO4` [Example 38], the inhibition at 30 µM is reported as 6%.

Molecule `N#CCCN1C2Cc3cc4c(cc3C1Cc1cc3c(cc12)OCO3)OCO4` [Example 39, 15-(2-cyanoethyl)-5,6,12,13-tetrahydrocycloocta[1,2-f:5,6-f']bis[1,3]benzodioxol-5,12-imine] has an inhibition at 30 µM of -48%.

In the case of `O=CN1C2Cc3cc4c(cc3C1Cc1cc3c(cc12)OCO3)OCO4` [Example 40, 15-formyl-5,6,12,13-tetrahydrocycloocta[1,2-f:5,6-f']bis[1,3]benzodioxol-5,12-imine], the inhibition at 30 µM is reported as 84%.

`COCCN1C2Cc3cc4c(cc3C1Cc1cc3c(cc12)OCO3)OCO4` [Example 42, 5,6,12,13-tetrahydro-15-(2-methoxyethyl)cycloocta[1,2-f:5,6-f']bis[1,3]benzodioxol-5,12-imine] gave an inhibition at 30 µM of 11%.

`CNC(=O)N1C2Cc3cc4c(cc3C1Cc1cc3c(cc12)OCO3)OCO4` [Example 44, 5,6,12,13-tetrahydro-15-(N-methylcarbamoyl)cycloocta[1,2-f:5,6-f']bis[1,3]benzodioxol-5,12-imine] was tested, and the inhibition at 30 µM was 90%.

Molecule `O=C(O)CC(=O)N1C2Cc3cc4c(cc3C1Cc1cc3c(cc12)OCO3)OCO4` [Example 45, 15-(carboxyacetyl)-5,6,12,13-tetrahydrocycloocta[1,2-f:5,6-f']bis[1,3]benzodioxol-5,12-imine] has an inhibition at 30 µM of 15%.

`O=C(O)C(=O)N1C2Cc3cc4c(cc3C1Cc1cc3c(cc12)OCO3)OCO4` [Example 46, 5,6,12,13-tetrahydro-15-oxalocycloocta[1,2-f:5,6-f']bis[1,3]benzodioxol-5,12-imine] showed an inhibition at 30 µM of 6%.

`O=C(CCO)N1C2Cc3cc4c(cc3C1Cc1cc3c(cc12)OCO3)OCO4` [Example 47, 5,6,12,13-tetrahydro-15-(3-hydroxypropionyl)cycloocta[1,2-f:5,6-f']bis[1,3]benzodioxol-5,12-imine] showed an inhibition at 30 µM of 83%.

Work on `O=C(CO)N1C2Cc3cc4c(cc3C1Cc1cc3c(cc12)OCO3)OCO4` [Example 48, 15-glycoloyl-5,6,12,13-tetrahydrocycloocta[1,2-f:5,6-f']bis-[1,3]benzodioxol-5,12-imine] yielded an inhibition at 30 µM of 85%.

Molecule `NCCN1C2Cc3cc4c(cc3C1Cc1cc3c(cc12)OCO3)OCO4` [Example 50, 15-(2-aminoethyl)-5,6,12,13-tetrahydrocycloocta[1,2-f:5,6-f']bis[1,3]benzodioxol-5,12-imine] has an inhibition at 30 µM of 64%.

Molecule `NCCCCN1C2Cc3cc4c(cc3C1Cc1cc3c(cc12)OCO3)OCO4` [Example 51, 15-(4-aminobutyl)-5,6,12,13-tetrahydrocycloocta[1,2-f:5,6-f']bis[1,3]benzodioxol-5,12-imine] has an inhibition at 30 µM of -44%.

Molecule `NCC(=O)N1C2Cc3cc4c(cc3C1Cc1cc3c(cc12)OCO3)OCO4` [Example 52, 15-glycyl-5,6,12,13-tetrahydrocycloocta[1,2-f:5,6-f']bis[1,3]benzodioxol-5,12-imine] has an inhibition at 30 µM of 20%.

`NCCC(=O)N1C2Cc3cc4c(cc3C1Cc1cc3c(cc12)OCO3)OCO4` [Example 53, 15-(3-aminopropionyl)-5,6,12,13-tetrahydrocycloocta[1,2-f:5,6-f']bis[1,3]benzodioxol-5,12-imine] gave an inhibition at 30 µM of -1%.
